± gives the standard deviation of the averaged measurements.
Key:
Conditions in all cases: treatment time: 3 days
[1] = tested on: UT-SCC-24A; assay: drug sensitivity score (DSS); higher = more sensitive
Description: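 HNSCC cell lines (500 cells/well, 384-well) were cultured on plastic, on top of (2D) or embedded (3D) in Matrigel or human leiomyoma matrix Myogel (500 ug/mL; Myogel 3D mixed with rat collagen I). Cells were treated for 3 days with 5 ten-fold concentrations of each drug, and viability was read by CellTiter-Glo. Suffixes _1/_2/_3 on drug names are replicates.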

[2] = tested on: UT-SCC-14; assay: maximal % inhibition of viability relative to DMSO; higher = stronger effect
Description: (§1)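 HNSCC cell lines (500 cells/well, 384-well) were cultured on plastic, on top of (2D) or embedded (3D) in Matrigel or human leiomyoma matrix Myogel (500 ug/mL; Myogel 3D mixed with rat collagen I). Cells were treated for 3 days with 5 ten-fold concentrations of each drug, and viability was read by CellTiter-Glo. Viability was normalised to DMSO and benzethonium chloride controls and fitted with the FIMM DSRT pipeline to give IC50 (nM), maximal % inhibition and DSS. Suffixes _1/_2/_3 are replicates. Only inhibition-mode (IC50) fits are kept.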

[3] = tested on: UT-SCC-42B; assay: as above
Description: as §1

[4] = tested on: UT-SCC-81; assay: as above
Description: as §1

[5] = tested on: UT-SCC-24A; assay: as above
Description: (§2)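 HNSCC cell lines (500 cells/well, 384-well) were cultured on plastic, on top of (2D) or embedded (3D) in Matrigel or human leiomyoma matrix Myogel (500 ug/mL; Myogel 3D mixed with rat collagen I). Cells were treated for 3 days with 5 ten-fold concentrations of each drug, and viability was read by CellTiter-Glo. Viability was normalised to DMSO (0% inhibition) and 100 uM benzethonium chloride (100% inhibition) controls and fitted with the FIMM DSRT pipeline to give IC50 (nM), maximal % inhibition and the drug sensitivity score (DSS). Suffixes _1/_2/_3 on drug names are replicates.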

[6] = tested on: UT-SCC-106A; assay: drug sensitivity score (DSS); higher = more sensitive; extreme values may be limits of the assay
How it was run: (§3)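 HPV-negative HNSCC cell lines were plated at 500 cells/well in 384-well plates, either on plastic, on wells coated with Matrigel or Myogel (500 µg/mL), or embedded in Matrigel or Myogel plus rat collagen I. Each compound was tested at five 10-fold concentrations over 3 days. Viability was measured by CellTiter-Glo 2.0 luminescence, and IC50, maximal inhibition and drug sensitivity score came from percent-inhibition dose–response curves fitted in the FIMM pipeline after normalisation to vehicle (0.1% DMSO) and cell-killing control wells.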

[7] = tested on: UT-SCC-14; assay: as above
How it was run: as §3

[8] = tested on: UT-SCC-24B; assay: as above
How it was run: as §3

[9] = tested on: UT-SCC-28; assay: as above
How it was run: as §3

[10] = tested on: UT-SCC-40; assay: as above
How it was run: as §3

[11] = tested on: UT-SCC-42A; assay: as above
How it was run: as §3

[12] = tested on: UT-SCC-42B; assay: as above
How it was run: as §3

[13] = tested on: UT-SCC-44; assay: as above
How it was run: as §3

[14] = tested on: UT-SCC-73; assay: as above
How it was run: as §3

[15] = tested on: UT-SCC-81; assay: as above
How it was run: as §3

[16] = tested on: UT-SCC-8; assay: as above
How it was run: as §3

[17] = tested on: UT-SCC-24A; assay: relative IC50 (midpoint of the fitted curve; maximal inhibition may be below 50%); higher = less potent
Description: as §2

[18] = culture condition: embedded in Matrigel
[19] = culture condition: embedded in Myogel + collagen I
[20] = culture condition: on top of Matrigel
[21] = culture condition: on top of Myogel
[22] = culture condition: plastic 2D (no matrix)

SMILES: COc1ccc(-c2cc3c(C)nc(N)nc3n([C@H]3CC[C@H](OCCO)CC3)c2=O)cn1
- drug sensitivity score [1, 18]: 17 ± 7.7 DSS
- drug sensitivity score [1, 19]: 9.63 ± 6.9 DSS
- drug sensitivity score [1, 20]: 11.9 ± 4.7 DSS
- drug sensitivity score [1, 21]: 5.83 ± 2.9 DSS
- drug sensitivity score [1, 22]: 11.4 ± 7.7 DSS
- maximal % inhibition of viability [2, 18]: 80.5 ± 3.8%
- maximal % inhibition of viability [2, 19]: 67.7 ± 5.3%
- maximal % inhibition of viability [2, 20]: 77.3 ± 1.4%
- maximal % inhibition of viability [2, 21]: 67.5 ± 3.8%
- maximal % inhibition of viability [2, 22]: 72.7 ± 3.6%
- maximal % inhibition of viability [3, 18]: 63.8 ± 11%
- maximal % inhibition of viability [3, 20]: 31.5 ± 7%
- maximal % inhibition of viability [3, 21]: 18.5 ± 13%
- maximal % inhibition of viability [3, 22]: 21.6 ± 12%
- maximal % inhibition of viability [4, 18]: 94 ± 4.5%
- maximal % inhibition of viability [4, 19]: 77.7 ± 13%
- maximal % inhibition of viability [4, 20]: 89.7 ± 4.7%
- maximal % inhibition of viability [4, 21]: 79.7 ± 8.8%
- maximal % inhibition of viability [4, 22]: 81.7 ± 7.7%
- maximal % inhibition of viability [5, 18]: 79.2 ± 19%
- maximal % inhibition of viability [5, 19]: 61.6 ± 18%
- maximal % inhibition of viability [5, 20]: 71.5 ± 12%
- maximal % inhibition of viability [5, 21]: 54.5 ± 16%
- maximal % inhibition of viability [5, 22]: 72.1 ± 23%
- drug sensitivity score [6, 18]: 17.5 ± 1.9 DSS
- drug sensitivity score [6, 19]: 9.13 ± 3.2 DSS
- drug sensitivity score [6, 20]: 15 ± 3.7 DSS
- drug sensitivity score [6, 21]: 8.9 ± 4.4 DSS
- drug sensitivity score [6, 22]: 15.3 ± 3 DSS
- drug sensitivity score [7, 18]: 14.9 ± 7.8 DSS
- drug sensitivity score [7, 19]: 8.67 ± 4.7 DSS
- drug sensitivity score [7, 20]: 12.8 ± 5.7 DSS
- drug sensitivity score [7, 21]: 9.9 ± 2.5 DSS
- drug sensitivity score [7, 22]: 9.5 ± 2 DSS
- drug sensitivity score [8, 18]: 15.4 ± 3.6 DSS
- drug sensitivity score [8, 19]: 19.8 ± 1.6 DSS
- drug sensitivity score [8, 20]: 16.1 ± 1.8 DSS
- drug sensitivity score [8, 21]: 13.9 ± 1.9 DSS
- drug sensitivity score [8, 22]: 16.6 ± 3.5 DSS
- drug sensitivity score [9, 18]: 10.5 ± 5.4 DSS
- drug sensitivity score [9, 19]: 6.7 ± 5 DSS
- drug sensitivity score [9, 20]: 13.8 ± 2.3 DSS
- drug sensitivity score [9, 22]: 11.5 ± 1.7 DSS
- drug sensitivity score [10, 18]: 13.4 ± 5.6 DSS
- drug sensitivity score [10, 19]: 11.5 ± 5.7 DSS
- drug sensitivity score [10, 20]: 12.1 ± 5.5 DSS
- drug sensitivity score [10, 21]: 8.77 ± 3.4 DSS
- drug sensitivity score [10, 22]: 8.4 ± 3.7 DSS
- drug sensitivity score [11, 18]: 5.87 ± 2.1 DSS
- drug sensitivity score [11, 19]: 5.73 ± 2.2 DSS
- drug sensitivity score [11, 20]: 7.63 ± 4.4 DSS
- drug sensitivity score [11, 21]: 6.6 ± 2.3 DSS
- drug sensitivity score [11, 22]: 7.97 ± 3.2 DSS
- drug sensitivity score [12, 18]: 10.2 ± 4.3 DSS
- drug sensitivity score [12, 20]: 1.8 ± 1.7 DSS
- drug sensitivity score [12, 21]: 1 ± 0.87 DSS
- drug sensitivity score [12, 22]: 0.967 ± 0.58 DSS
- drug sensitivity score [13, 18]: 10.5 ± 1.6 DSS
- drug sensitivity score [13, 19]: 4.07 ± 2.6 DSS
- drug sensitivity score [13, 20]: 8.07 ± 0.71 DSS
- drug sensitivity score [13, 21]: 4.63 ± 1.3 DSS
- drug sensitivity score [13, 22]: 5.7 ± 0.1 DSS
- drug sensitivity score [14, 18]: 16 ± 2.9 DSS
- drug sensitivity score [14, 19]: 12.1 ± 4.3 DSS
- drug sensitivity score [14, 20]: 13.9 ± 2.8 DSS
- drug sensitivity score [14, 21]: 12.7 ± 3 DSS
- drug sensitivity score [14, 22]: 12.6 ± 4.8 DSS
- drug sensitivity score [15, 18]: 23.6 ± 11 DSS
- drug sensitivity score [15, 19]: 14.2 ± 7.1 DSS
- drug sensitivity score [15, 20]: 15.9 ± 7.3 DSS
- drug sensitivity score [15, 21]: 13.6 ± 6.6 DSS
- drug sensitivity score [15, 22]: 14.4 ± 8.1 DSS
- drug sensitivity score [16, 18]: 11.4 ± 2.5 DSS
- drug sensitivity score [16, 19]: 4.97 ± 1.8 DSS
- drug sensitivity score [16, 20]: 10.9 ± 3.1 DSS
- drug sensitivity score [16, 21]: 10.9 ± 3.6 DSS
- drug sensitivity score [16, 22]: 10.4 ± 2.7 DSS

SMILES: CN(C)C/C=C/C(=O)Nc1cc2c(Nc3ccc(F)c(Cl)c3)ncnc2cc1O[C@H]1CCOC1 [Afatinib]
- drug sensitivity score [1, 18]: 20.6 ± 3.3 DSS
- drug sensitivity score [1, 19]: 8.9 ± 5.3 DSS
- drug sensitivity score [1, 20]: 16.6 ± 2.1 DSS
- drug sensitivity score [1, 21]: 2.93 ± 2.1 DSS
- drug sensitivity score [1, 22]: 15.6 ± 3.1 DSS
- maximal % inhibition of viability [2, 18]: 74.9 ± 5.2%
- maximal % inhibition of viability [2, 19]: 44.3 ± 12%
- maximal % inhibition of viability [2, 20]: 74.6 ± 7.7%
- maximal % inhibition of viability [2, 21]: 47.3 ± 16%
- maximal % inhibition of viability [2, 22]: 71.4 ± 10%
- maximal % inhibition of viability [3, 18]: 73.7 ± 4.9%
- maximal % inhibition of viability [3, 20]: 54.4 ± 3.4%
- maximal % inhibition of viability [3, 21]: 9.53 ± 0.45%
- maximal % inhibition of viability [3, 22]: 37.8 ± 4.5%
- maximal % inhibition of viability [4, 18]: 88.3 ± 2.3%
- maximal % inhibition of viability [4, 19]: 33.4 ± 37%
- maximal % inhibition of viability [4, 20]: 83.3 ± 2.2%
- maximal % inhibition of viability [4, 21]: 23 ± 7.8%
- maximal % inhibition of viability [4, 22]: 71.2 ± 5%
- maximal % inhibition of viability [5, 18]: 79.9 ± 1.1%
- maximal % inhibition of viability [5, 19]: 38.8 ± 2.3%
- maximal % inhibition of viability [5, 20]: 68.23 ± 0.59%
- maximal % inhibition of viability [5, 21]: 20.3 ± 3.7%
- maximal % inhibition of viability [5, 22]: 67.1 ± 4%
- drug sensitivity score [6, 18]: 10.9 ± 1.4 DSS
- drug sensitivity score [6, 19]: 0 DSS
- drug sensitivity score [6, 20]: 13.7 ± 2.2 DSS
- drug sensitivity score [6, 21]: 0.133 ± 0.23 DSS
- drug sensitivity score [6, 22]: 13.7 ± 1.7 DSS
- drug sensitivity score [7, 18]: 13.8 ± 3 DSS
- drug sensitivity score [7, 19]: 9.3 ± 6.4 DSS
- drug sensitivity score [7, 20]: 12.5 ± 1.4 DSS
- drug sensitivity score [7, 21]: 7.33 ± 3.8 DSS
- drug sensitivity score [7, 22]: 12.1 ± 4.1 DSS
- drug sensitivity score [8, 18]: 11.4 ± 0.72 DSS
- drug sensitivity score [8, 19]: 4.57 ± 0.58 DSS
- drug sensitivity score [8, 20]: 10.9 ± 0.96 DSS
- drug sensitivity score [8, 21]: 2.3 ± 0.7 DSS
- drug sensitivity score [8, 22]: 16.1 ± 0.56 DSS
- drug sensitivity score [9, 18]: 0 DSS
- drug sensitivity score [9, 19]: 0 DSS
- drug sensitivity score [9, 20]: 0.233 ± 0.32 DSS
- drug sensitivity score [9, 22]: 0 DSS
- drug sensitivity score [10, 18]: 16 ± 1.1 DSS
- drug sensitivity score [10, 19]: 2.93 ± 3.1 DSS
- drug sensitivity score [10, 20]: 14.5 ± 1.1 DSS
- drug sensitivity score [10, 21]: 3.37 ± 1.5 DSS
- drug sensitivity score [10, 22]: 10.2 ± 1.3 DSS
- drug sensitivity score [11, 18]: 9.73 ± 3.1 DSS
- drug sensitivity score [11, 19]: 0.767 ± 1.3 DSS
- drug sensitivity score [11, 20]: 12.7 ± 1.4 DSS
- drug sensitivity score [11, 21]: 4.33 ± 1.3 DSS
- drug sensitivity score [11, 22]: 10.3 ± 2.3 DSS
- drug sensitivity score [12, 18]: 15.7 ± 1.7 DSS
- drug sensitivity score [12, 20]: 11.6 ± 1.6 DSS
- drug sensitivity score [12, 21]: 0 DSS
- drug sensitivity score [12, 22]: 6.6 ± 0.72 DSS
- drug sensitivity score [13, 18]: 0.233 ± 0.4 DSS
- drug sensitivity score [13, 19]: 0 DSS
- drug sensitivity score [13, 20]: 0 DSS
- drug sensitivity score [13, 21]: 0 DSS
- drug sensitivity score [13, 22]: 0 DSS
- drug sensitivity score [14, 18]: 2.43 ± 1.8 DSS
- drug sensitivity score [14, 19]: 3.1 ± 5.4 DSS
- drug sensitivity score [14, 20]: 0 DSS
- drug sensitivity score [14, 21]: 0.433 ± 0.75 DSS
- drug sensitivity score [14, 22]: 1.47 ± 1.2 DSS
- drug sensitivity score [15, 18]: 23 ± 2.7 DSS
- drug sensitivity score [15, 19]: 6.47 ± 11 DSS
- drug sensitivity score [15, 20]: 18.5 ± 2.3 DSS
- drug sensitivity score [15, 21]: 1.6 ± 0.66 DSS
- drug sensitivity score [15, 22]: 12.5 ± 1.2 DSS
- drug sensitivity score [16, 18]: 19.8 ± 0.42 DSS
- drug sensitivity score [16, 19]: 0.333 ± 0.58 DSS
- drug sensitivity score [16, 20]: 19 ± 0.44 DSS
- drug sensitivity score [16, 21]: 8.37 ± 4.4 DSS
- drug sensitivity score [16, 22]: 18 ± 1.5 DSS
- relative IC50 [17, 18]: 8.03 nM
- relative IC50 [17, 20]: 9.88 nM
- relative IC50 [17, 22]: 12.8 nM
